Results: ChEMBL document CHEMBL3861981 (J Med Chem, 2016)

Key:
[1] = Clearance in cannulated Sprague-Dawley rat plasma at 5 mg/kg, iv administered as 10 mins infusion measured up to 24 hrs post dose by LC/MS/MS analysis; assay type: ADME, organism-based
[2] = Half life in human liver microsomes; assay type: ADME
[3] = Half life in cannulated Sprague-Dawley rat plasma at 5 mg/kg, iv administered as 10 mins infusion by LC/MS/MS analysis; assay type: ADME, organism-based
[4] = Drug uptake in cannulated Sprague-Dawley rat liver at 15 mg/kg administered via oral gavage measured at 24 hrs post dose by LC/MS/MS analysis; assay type: ADME, organism-based; details: read-out: Drug uptake
[5] = Oral bioavailability in cannulated Sprague-Dawley rat plasma at 15 mg/kg administered via gavage measured up to 24 hrs post dose by LC/MS/MS analysis; assay type: ADME, organism-based
[6] = AUC in cannulated Sprague-Dawley rat plasma at 15 mg/kg administered via oral gavage measured up to 24 hrs post dose by LC/MS/MS analysis; assay type: ADME, organism-based; parameters: dose 15 mg/kg, time < 24 hr, route oral
Hepatitis C virus = assay: Antiviral activity against HCV genotype 1b Con1 expressing NS3 protease infected in human Huh7.5 cells assessed as reduction in viral RNA replication by luciferase reporter gene assay; assay type: functional, cell-based, Hepacivirus hominis; details: genotype 1b Con1, Huh-7
[7] = Cardiotoxicity in anesthetized rabbit assessed as decrease in heart rate by electrophysiology method; assay type: toxicity, Oryctolagus cuniculus
[8] = Half life in Beagle dog plasma at 1 mg/kg, iv administered as 5 mins infusion by LC/MS/MS analysis; assay type: ADME, organism-based, Canis lupus familiaris
[9] = Cardiotoxicity in anesthetized rabbit assessed as prolongation of QRS by electrophysiology method; assay type: toxicity, Oryctolagus cuniculus
[10] = Cardiotoxicity in rabbit heart assessed as change in heart rate at 10 uM perfused for 20 mins measured for 1 min by electrophysiology method relative to control; assay type: toxicity, tissue-based, Oryctolagus cuniculus
Homo sapiens [11] = species: Homo sapiens; assay: Inhibition of sodium channel (unknown origin) at 10 uM at 4 Hz by patch clamp assay
[12] = Cardiotoxicity in rabbit heart assessed as change in sinoatrial node recovery time at 10 uM perfused for 20 mins measured for 1 min by electrophysiology method relative to control; assay type: toxicity, tissue-based, Oryctolagus cuniculus
[13] = Oral bioavailability in cynomolgus monkey plasma at 10 mg/kg administered via gavage measured up to 24 hrs post dose by LC/MS/MS analysis; assay type: ADME, organism-based, Macaca fascicularis; details: in vivo, 24 h
[14] = Oral bioavailability in Beagle dog plasma at 3 mg/kg administered via gavage measured up to 24 hrs post dose by LC/MS/MS analysis; assay type: ADME, organism-based, Canis lupus familiaris; details: in vivo, 24 h
[15] = Clearance in Beagle dog plasma at 1 mg/kg, iv administered as 5 mins infusion measured up to 24 hrs post dose by LC/MS/MS analysis; assay type: ADME, organism-based, Canis lupus familiaris
[16] = Cardiotoxicity in anesthetized rabbit assessed as prolongation of HV by electrophysiology method; assay type: toxicity, Oryctolagus cuniculus
[17] = AUC in cynomolgus monkey plasma at 10 mg/kg administered via oral gavage measured up to 24 hrs post dose by LC/MS/MS analysis; assay type: ADME, organism-based, Macaca fascicularis; parameters: dose 10 mg/kg, time < 24 hr, route oral; details: in vivo, 24 h
[18] = AUC in Beagle dog plasma at 3 mg/kg administered via oral gavage measured up to 24 hrs post dose by LC/MS/MS analysis; assay type: ADME, organism-based, Canis lupus familiaris; parameters: dose 3 mg/kg, time < 24 hr, route oral
Homo sapiens [19] = species: Homo sapiens; assay: Inhibition of sodium channel (unknown origin) at 10 uM at 1 Hz by patch clamp assay
[20] = Half life in cynomolgus monkey plasma at 3 mg/kg, iv administered as 5 mins infusion by LC/MS/MS analysis; assay type: ADME, organism-based, Macaca fascicularis
[21] = Cardiotoxicity in rabbit heart assessed as change in heart rate at 10 uM perfused for 60 mins measured every 10 mins during perfusion by electrophysiology method relative to control; assay type: toxicity, tissue-based, Oryctolagus cuniculus; details: 1 h
[22] = Cardiotoxicity in rabbit heart assessed as change in sinoatrial node recovery time at 10 uM perfused for 60 mins measured every 10 mins during perfusion by electrophysiology method relative to control; assay type: toxicity, tissue-based, Oryctolagus cuniculus; details: 1 h

Compound | clearance [1] | half-life [2] | half-life [3] | concentration at 24 h [4] | bioavailability [5] | AUC at 24 h [6] | EC50 (Hepatitis C virus) | Activity [10] | Activity [12] | Activity [21] | Activity [22] | further results
COc1cnc(O[C@@H]2C[C@@H](C(=O)N[C@]3(C(=O)NS(=O)(=O)C4CC4)C[C@H]3C3CC3)N(C(=O)[C@@H](NC(=O)O[C@H](C)C(F)(F)F)C(C)(C)C)C2)c2cc(Cl)cc(Cl)c12 | 40.4 mL/min/kg | 2 h | 5.5 h | 24 µM | 42.4% | 6.3 µM·h | 3 nM | – | – | – | – | –
COc1cnc(O[C@@H]2C[C@@H](C(=O)N[C@]3(C(=O)NS(=O)(=O)C4CC4)C[C@H]3C3CC3)N(C(=O)[C@@H](NC(=O)O[C@H](C)C(F)(F)F)C(C)(C)C)C2)c2cc(Cl)ccc12 | 11.5 mL/min/kg | 2.12 h | 10.3 h | 61.6 µM | 58% | 13.8 µM·h | 4.7 nM | -13% | 16% | -24% | – | Activity [7]: Non-Toxic; half-life [8]: 6.7 h; Activity [9]: Toxic; inhibition (Homo sapiens [11]): 76%; F [13]: 12.9%; F [14]: 157%; clearance [15]: 8.5 mL/min/kg; Activity [16]: Toxic; AUC [17]: 0.772 µM·h; AUC at 24 h [18]: 12.7 µM·h; inhibition (Homo sapiens [19]): 72%; half-life [20]: 1.2 h
C=C[C@@H]1C[C@]1(NC(=O)[C@@H]1C[C@@H](Oc2nccc3cc(OC)ccc23)CN1C(=O)[C@@H](NC(=O)OC(C)(C)C)C(C)(C)C)C(=O)NS(=O)(=O)C1CC1 | – | 0.55 h | – | 0.74 µM | – | 14.1 µM·h | – | -25% | 290% | – | – | –
COc1cnc(O[C@@H]2C[C@@H](C(=O)N[C@]3(C(=O)NS(=O)(=O)C4CC4)C[C@H]3C3CC3)N(C(=O)[C@@H](NC(=O)OC(C)(C)C)C(C)(C)C)C2)c2cc(Cl)ccc12 | 5 to 5.2 mL/min/kg | 1.38 h | 10 h | 35.7 µM | 44.2% | 19.6 µM·h | 18.3 nM | -3.5% | 18.5% | -7.5% | 20% | –
COc1ccc2c(O[C@@H]3C[C@@H](C(=O)N[C@]4(C(=O)NS(=O)(=O)C5CC5)C[C@H]4C4CC4)N(C(=O)[C@@H](NC(=O)O[C@H](C)C(F)(F)F)C(C)(C)C)C3)nc(OC)cc2c1 | 14 mL/min/kg | 1.77 h | 3 h | 19.2 µM | 3.5% | 0.79 to 0.794 µM·h | 2.4 nM | -58% | – | – | – | –
CC[C@@H]1C[C@]1(NC(=O)[C@@H]1C[C@@H](Oc2ncc(OC)c3ccc(Cl)cc23)CN1C(=O)[C@@H](NC(=O)OC(C)(C)C)C(C)(C)C)C(=O)NS(=O)(=O)C1CC1 | 18 mL/min/kg | 0.567 h | 12 h | 40 µM | 43% | 6.9 µM·h | 16 nM | -12% | 26% | -35% | 148% | –
